Read-outs that look alike come from different tables or passages of the source.

For one series, the system named is patients with HE. The conditions noted are these: cited from earlier work; for HE severity after treatment / HECSI score after treatment: after 16 weeks; for HE severity after treatment: 'severe' at start.
In the next series the test system is HE. Kind of series: clinical studies of baricitinib for treating HE (Example 2, with Davos Biosciences GmbH). The conditions noted are these: daily dosage of 4 mg. Format: in vivo, human.

For `CCS(=O)(=O)N1CC(CC#N)(n2cc(-c3ncnc4[nH]ccc34)cn2)C1` [baricitinib, {1-(ethylsulfonyl)-3-[4-(7H-pyrrolo[2,3-d]pyrimidin-4-yl)-1H-pyrazol-1-yl]azetidin-3-yl}acetonitrile], the “treatment outcome of two patients with HE” value with patients with HE (4 mg tablet once per day) is recorded as “successfully treated”. The “HE severity after treatment” value is listed as “almost clear” with patients with HE (case 1: severe hyperkeratotic HE, 4 mg once per day) and “almost clear” in the series with patients with HE (case 2: severe AD with severe atopic HE, 4 mg per day tapered to 2 mg per day at 12 weeks). The “HECSI score after treatment” value is on record as 4 in the series with patients with HE (case 1, 4 mg once per day, HECSI 55 (severe) at start) and 8 with patients with HE (case 2, 4 mg per day tapered to 2 mg at 12 weeks, HECSI 47 (severe) at start). In the series on patients with HE (case 1, 4 mg once per day), the “tolerability / side effects” value is listed as “no side effects occurred”. Moreover, the “quality of life (QOLHEQ) after treatment” value is recorded as “not at all impaired” in the series with patients with HE (case 1, improved from "strongly impaired") and “not at all impaired” in the series on patients with HE (case 2, improved from "moderately impaired"). In addition, the “adverse event leading to discontinuation” value with patients with HE (case 2, at 16 weeks) is reported as “bacterial corneal ulcer”. For the same compound, in the series with HE, the “efficacy in HE (photographic images and additional clinical data)” value is “effective”.

Source of the values: patent US20250041304A1 (Eli Lilly and Company, priority 2021, published 2025).
